Data as given in patent US20240173323A1, “COMBINATION THERAPY FOR CANCER TREATMENT” (Takeda Pharmaceutical Company Limited, priority 2021, published 2024).
“Also recorded” adds a separate entry of the source.

Tested on: PHTXS-13O human primary ovarian cancer xenografts
Assay: In vivo antitumor activity of Compound 1 in combination with PARP inhibitor in Patient Derived Xenograft (PDX) model
Conditions: PHTXS-13O PDX in nude mice
Description: To investigate in vivo antitumor activity of Compound 1 in combination with PARP inhibitor, tests using Patient Derived Xenograft (PDX) model were conducted. Patient Derived Tumors were inoculated by the following Method.
Method: Patient Derived Tumors were maintained in nude mice by subcutaneous inoculation of tumor pieces (approx. 2×2×2 mm) into nude mice. Mice with tumor size of approximately 130 mm^3 (e.g., 125-130 mm^3) for xenograft studies were randomly assigned to dose groups on the day (Day 0) before start date of dosing.
Compound 1 (crystalline form I) was suspended in solution comprising 0.5 w/v % methylcellulose and administered orally to mice.
Tumor size was measured by caliper and tumor volume was estimated using the equation V=(LW^2)/2, where L and W are tumor length and width, respectively and reported in cubic millimeters.
Statistical analyses of combination effect for tumor growth was conducted as follows; […]
For synergy analyses, the observed differences in the log tumor values were used to calculate AUC values for each animal In instances when an animal in a treatment group was removed from the study, the last observed tumor value was carried forward through all subsequent time points. The AUC for the control, or vehicle, group was calculated using the predicted values from the pairwise models described above. […]

Cc1[nH]ncc1-c1cc2nc([C@@H]3CC4CCN3CC4)[nH]c(=O)c2s1 [Compound 1, 2-[(2S)-1-azabicyclo[2.2.2]oct-2-yl]-6-(3-methyl-1H-pyrazol-4-yl)thieno[3,2-d]pyrimidin-4(3H)-one]
antitumor activity (tumor volume) of Compound 1 combined with olaparib (Compound 1 40 or 60 mg/kg once daily orally Day 1-14 + olaparib 25 or 50 mg/kg daily orally Days 1-14, compared to either single treatment alone (FIG. 2)): good antitumor efficacy; also recorded: strong antitumor activity
antitumor activity (tumor volume) of Compound 1 combined with niraparib (Compound 1 40 or 60 mg/kg once daily orally Day 1-21 + niraparib 25 or 50 mg/kg daily orally Days 1-21, compared to either single treatment alone (FIG. 1)): good antitumor efficacy; also recorded: strong antitumor activity
